Measurements published in patent US9975870B2, “5,6-dimethoxy-1,1-dioxobenzo[b]thiophene-2-methyloxycarbonyl (DM-Bsmoc) and related amino-protecting groups” (MASSACHUSETTS, UNIVERSITY OF, priority 2013, dated 2018).

test: Deblocking of substituted Bsmoc p-chloroaniline (R-Bsmoc-PCA) urethanes with piperidine, 1H-NMR monitoring; format: physicochemical; conditions: 2 eq piperidine in CDCl3, 1H-NMR analysis; approximate values
Text: As an electron-withdrawing substituent the MeSO2 group also enhances the stability of the benzo[b]thiophene-2-methyl system toward acidic reagents and in addition enhances the speed of the deblocking step. […] Tables 1A and 1B show the approximate half times for the reaction of substituted Bsmoc p-chloroaniline derivatives with 2 eq of piperidine in CDCl3 according to ^1H-NMR analysis.
Tables 1A and 1B. Approximate half times for the reaction of R-Bsmoc-PCA urethane and piperidine

For `CC1=C(COC(=O)Nc2ccc(Cl)cc2)S(=O)(=O)c2ccccc21` [3-Me-Bsmoc-PCA], which “t1/2 2 eq piperidine in CDCl3 (approximate half time for the reaction of R-Bsmoc-PCA urethane and piperidine)” value (“t1/2 2 eq piperidine in CDCl3” for short) is on record?
The value was 360 min.

For `Cc1cccc2c1C=C(COC(=O)Nc1ccc(Cl)cc1)S2(=O)=O` [4-Me-Bsmoc-PCA], which “t1/2 2 eq piperidine in CDCl3” value is on record?
Its value is 150 min.

Which “t1/2 2 eq piperidine in CDCl3” value does the source give for `COc1cc2c(cc1OC)S(=O)(=O)C(COC(=O)Nc1ccc(Cl)cc1)=C2` [5,6-MeO-Bsmoc-PCA] here?
The value was 3 to 4 min.

For `CC(=O)Nc1ccc2c(c1)C=C(COC(=O)Nc1ccc(Cl)cc1)S2(=O)=O` [5-Ac—NH-Bsmoc-PCA], which “t1/2 2 eq piperidine in CDCl3” value is on record?
The value was 3 min.

For `O=C(Nc1ccc(Cl)cc1)OCC1=Cc2cc(Cl)ccc2S1(=O)=O` [5-Cl-Bsmoc-PCA], which “t1/2 2 eq piperidine in CDCl3” value is on record?
The value was 2 min.

With `Cc1ccc2c(c1)C=C(COC(=O)Nc1ccc(Cl)cc1)S2(=O)=O` [5-Me-Bsmoc-PCA] as the compound, how does the “t1/2 2 eq piperidine in CDCl3” value read?
The value was 6 to 7 min.

For `CS(=O)(=O)c1ccc2c(c1)C=C(COC(=O)Nc1ccc(Cl)cc1)S2(=O)=O` [5-MeSO2-Bsmoc-PCA], which “t1/2 2 eq piperidine in CDCl3” value is on record?
Its value is under 1 min.

Which “t1/2 2 eq piperidine in CDCl3” value does the source give for `O=C(Nc1ccc(Cl)cc1)OCC1=Cc2cc([N+](=O)[O-])ccc2S1(=O)=O` [5-NO2-Bsmoc-PCA] here?
The value was under 1 min.

With `O=C(Nc1ccc(Cl)cc1)OCC1=Cc2ccc(Cl)cc2S1(=O)=O` [6-Cl-Bsmoc-PCA] as the compound, how does the “t1/2 2 eq piperidine in CDCl3” value read?
Its value is 2 min.

With `CS(=O)(=O)c1ccc2c(c1)S(=O)(=O)C(COC(=O)Nc1ccc(Cl)cc1)=C2` [6-MeSO2-Bsmoc-PCA] as the compound, how does the “t1/2 2 eq piperidine in CDCl3” value read?
Its value is under 1 min.

Which “t1/2 2 eq piperidine in CDCl3” value does the source give for `O=C(Nc1ccc(Cl)cc1)OCC1=Cc2ccccc2S1(=O)=O` [Bsmoc-PCA, reference compound] here?
Its value is 6 to 7 min.

same assay, conditions: treatment with piperidine in CDCl3, NMR monitoring

Which “speed of deblocking relative to the unsubstituted analog (Bsmoc-NHC6H4-Cl-p)” value does the source give for `CS(=O)(=O)c1ccc2c(c1)C=C(COC(=O)Nc1ccc(Cl)cc1)S2(=O)=O` [5-MeSO2-Bsmoc-PCA] here?
Its value is “about six times more readily”.
